Source: US20050221381A1, “Method for isolating ligands” (priority 2002, published 2005)
Entries after “also recorded” stand apart in the source; their conditions may differ. Where two headings read alike, the source gives them in different places.

Tests used:
[1] = target: T1, soluble DRB1*0401 molecules (DR4) (Homo sapiens, UniProt P01903+P01911, A100K/A169T/F76Y/I96L/K127E/L162R/M171V/N62H/P40V/Q125Y/R42H/S133A/S149N/S66Y/V115G/V209L/W38E); type: binding; design: key: −: no binding/T cell response; +/−: weak binding/T cell response; +: intermediate binding/T cell response; ++: strong binding/T cell response
T1 construct: Soluble HLA class I A*0201 and HLA class II DRA1*0101/DRB1*0101/Ii, DRA1*0101/DRB1*0401/Ii and DRA1*0101/DRB1*0404/Ii molecules were expressed in SC-2 cells; made in house; host or cells: SC-2 cells

[2] = tested on: HLA-DRB1*0401-transgenic mice splenocytes; type: in vivo, mouse; design: key to DRB1*0401 mice total SC (T cell response) / DRB1*0401 mice CD4+ (T cell response): −: no binding/T cell response; +/−: weak binding/T cell response; +: intermediate binding/T cell response; ++: strong binding/T cell response; settings: for Immunogenicity in DRB1*0401-transgenic mice (in words): INF-gamma ELISpot (FIG. 12)
[3] = target: T2, soluble DRB1*0101 molecules (Homo sapiens, UniProt P01903+P01911, A100R/D57E/F55L/F60I/F76Y/I96L/L162R/M171V/P40L/Q125E/R42F/V115G/Y59C); test: Peptide binding assay, SDS-stability assay; design: key: −: no binding/T cell response; +/−: weak binding/T cell response; +: intermediate binding/T cell response; ++: strong binding/T cell response
T2 construct: Soluble HLA class I A*0201 and HLA class II DRA1*0101/DRB1*0101/Ii, DRA1*0101/DRB1*0401/Ii and DRA1*0101/DRB1*0404/Ii molecules were expressed in SC-2 cells; made in house; host or cells: SC-2 cells

[4] = target: T3, soluble DRB1*0404 molecules (Homo sapiens, UniProt P01903+P01911, A100R/A169T/F76Y/I96L/K127E/L162R/M171V/N62H/P40V/Q125Y/R42H/S133A/S149N/S66Y/V209L/W38E); test: Peptide binding assay, SDS-stability assay; design: key: −: no binding/T cell response; +/−: weak binding/T cell response; +: intermediate binding/T cell response; ++: strong binding/T cell response
T3 construct: Soluble HLA class I A*0201 and HLA class II DRA1*0101/DRB1*0101/Ii, DRA1*0101/DRB1*0401/Ii and DRA1*0101/DRB1*0404/Ii molecules were expressed in SC-2 cells; made in house; host or cells: SC-2 cells

[5] = target: T1, soluble DRB1*0401 molecules (DR4); type: binding; design: key to DR4 binding: +++: high binding affinity; ++: moderate binding affinity; +: low binding affinity; −: no binding; key to Binding to DRB1 *0401: −: no binding/T cell response; +/−: weak binding/T cell response; +: intermediate binding/T cell response; ++: strong binding/T cell response; settings: for Binding to soluble DRB1*0401 molecules (in words): SDS-stability assay
DRB1*0701 = DRB1*0701 (Homo sapiens, UniProt P01903+P01911, A100R/A102G/A103Q/D57E/D86V/E43K/F76Y/K127E/L162R/M171V/P40G/Q125H/Q99D/R33Q/R42Y/R54Q/S133A/S66F/T210M/V115G/Y107V/Y59L/Y89S); test: Peptide-competition assay with biotinylated CLIP peptide (ELISA); type: binding; design: key: −: no binding/T cell response; +/−: weak binding/T cell response; +: intermediate binding/T cell response; ++: strong binding/T cell response
Method: (§1) The binding affinities to DRB1*0701 and DRB1*1101 were tested by a peptide-competition assay (Reay et al., 1992). Briefly, binding of the biotinylated CLIP peptide (reference peptide) has been used for monitoring of HLA:peptide complex formation. […] In the case of lower affinity peptides they should be added in excess to the reference peptide to compete for occupancy of HLA binding grove. […] Alternatively, comparing of the amount of reference peptide bound to HLA molecules in the presence or absence of competitor peptide one can determine the binding activity of the peptide of interest.
(§2) In the present peptide-competition assay conditions of peptide binding were similar to described above. Soluble HLA molecules were used in the concentration of 0.5 μM and biotinylated CLIP was added to all samples in the final concentration of 2 μM. Competitor peptides were added in three different concentrations: 0.25, 5 and 100 μM. Binding reaction was performed in PBS buffer (pH 7.4) for 18 hours at 37° C. […] Briefly, MaxiSorb 96-well plates (Nunc, Denmark) were coated with mouse anti-αβ antibody L243 (purified from ATCC HB-55) by overnight incubation with 50 μl of 10 μg/ml dilution in PBS at 4° C. Non-specific binding to the plastic was blocked by incubation with T-PBS containing 3% of BSA for 2 hours at 37° C. and binding reactions were then “captured” for 2 hours at room temperature. […] The optical density at 405 nm was measured on a microplate reader SUNRISE (Tecan).

DRB1*1101 = DRB1*1101 (Homo sapiens, UniProt P01903+P01911, A100R/A169T/A87E/I96F/K41T/L162R/M171V/P40S/Q125H/Q178H/Q39Y/Q99D/R42S/S66Y/T262R/V115G/W38E); test: as above; type: binding; design: key: −: no binding/T cell response; +/−: weak binding/T cell response; +: intermediate binding/T cell response; ++: strong binding/T cell response; settings: for Binding to DRB1*1101: longer peptides no. 1500-1505, peptide-competition assay
Method: as §1, §2

[6] = target: T4, soluble DRB1*0401 molecules (Homo sapiens, UniProt P01903+P01911, A100K/A169T/F76Y/I96L/K127E/L162R/M171V/N62H/P40V/Q125Y/R42H/S133A/S149N/S66Y/V115G/V209L/W38E); test: Epitope capture from peptide mixtures, gel filtration and MALDI-TOF MS of bound peptides; type: binding
T4 construct: Soluble HLA class I A*0201 and HLA class II DRA1*0101/DRB1*0101/Ii, DRA1*0101/DRB1*0401/Ii and DRA1*0101/DRB1*0404/Ii molecules were expressed in SC-2 cells; made in house; host or cells: SC-2 cells
Source text: After peptide binding reaction with soluble HLA molecules, HLA-peptide complexes were separated from free peptides by gel-filtration chromatography on Superdex-200 column (AKTAdesign, Amersham Pharmacia Biotech). HLA-containing fractions were collected, and bound peptides were reconstituted from the complexes by adding TFA to the final concentration of 1%. Peptides were desolted by Ziptip purification and analyzed by MALDI-TOF mass-spectrometry.
Second, the ability to capture peptides binding to HLA class II molecules from the mixture of two high affinity ligands was tested. The binding reaction contained 1 μM of soluble DRB1*0401 molecules and 5 μM of each YAR and 1242 peptide. After the HLA-peptide complexes were formed, they were separated from the excess of free peptides by gel filtration chromatography. Fractions containing MHC molecules were collected. Bound peptides were eluted from the complexes and analyzed by mass-spectrometry.
Third, it was investigated if the binding capacity of the high affinity ligand would be influenced by the excess of low affinity peptide. […] Peptide binding was assessed by SDS-stability assay and verified by MS analysis (FIG. 3).
The final concentration of each peptide in binding reaction was 5 μM, except 1236 added in 55 μM, meaning that the concentration of each individual binding peptide was 20-fold lower than final concentration of all peptides. DRB1*0401 molecules were added to 1 μM. The formation of MHC-peptide complexes was evaluated as described above, using single peptides as controls (FIG. 4). […] The result of this analysis yielded the two peptides with highest binding affinities: 1242 and YAR (see Table 1). The peptides with moderate and/or low affinities were not found in the complexes, probably due to the high concentration of strong competitors used in this assay.

[7] = longer peptides no. 1500-1505, peptide-competition assay
[8] = CD4+ fraction of splenocytes, IFN-γ ELISpot
[9] = IFN-gamma ELISpot, enriched CD4+ fraction of splenocytes of HLA-DR4 transgenic mice vaccinated with the longer peptide, ex vivo re-stimulation
[10] = IFN-gamma ELISpot, total splenocytes of HLA-DR4 transgenic mice vaccinated with the longer peptide, ex vivo re-stimulation
[11] = total splenocytes, ex vivo restimulation, IFN-γ ELISpot

| Sequence | Binding to DRB1*0101 ([3]; longer peptides no. 1500-1505) | Binding to DRB1*0101 ([3]; soluble DRB1*0101 molecules) | Binding to DRB1*0404 ([4]; longer peptides no. 1500-1505) | Binding to DRB1*0404 ([4]; soluble DRB1*0404 molecules) | Binding to DRB1 *0701 (DRB1*0701; DRB1*0701) | Binding to DRB1 *0701 (DRB1*0701; [7]) | Binding to DRB1 1101 (DRB1*1101) | Binding to DRB1*1101 (DRB1*1101) | Binding to DRB1*0401 ([1]; longer peptides no. 1500-1505) | DRB1*0401 mice CD4+ (T cell response) [2, 8] | DRB1*0401 mice CD4+ (T cell response) [2, 9] | DRB1*0401 mice total SC (T cell response) [2, 10] | DRB1*0401 mice total SC (T cell response) [2, 11] | Binding to DRB1 *0401 ([5]; soluble DRB1*0401 molecules) | also measured |
| --- | --- | --- | --- | --- | --- | --- | --- | --- | --- | --- | --- | --- | --- | --- | --- |
| LLQRGPQYSEHPTFTSQYRIQG [Peptide 1502] | − | − | − | − | − | − | ++ | ++ |  |  |  |  |  |  | Binding to DRB1*0401 [1]: +; CD4+ / CD8+ response of separated splenocytes ([2]; mouse, in vivo): simultaneous CD4+ and CD8+ response; DRB1*0401 mice CD4+ (T cell response) ([2]; mouse, in vivo): ++; DRB1*0401 mice total SC (T cell response) ([2]; mouse, in vivo, sc): + and ++; Binding to DRB1 *0401 [5]: + |
| YRHTWDRHDEGAAQGDDDVW [Peptide 1503] | − | − | − | − | − | − | − | − | +/− | − | − | − | − | +/− | Immunogenicity in DRB1*0401-transgenic mice (in words) ([2]; total splenocytes): did not induce immune response; also recorded: not immunogenic; Binding to soluble DRB1*0401 molecules (in words) [5]: weak affinity |
| TSGVMTRGRLKAESTVAPEEDTDE [Peptide 1504] | + | + |  | ++ | − | − | + | + | + | ++ | ++ | + | + | + |  |
| YARFQSQTTLKQKT [reference compound] |  |  |  |  |  |  |  |  |  |  |  |  |  |  | Peptides captured from pool of 10 peptides, MS analysis ([6]; each peptide 5 μM, 1236 55 μM, DRB1*0401 1 μM): captured by DR4 molecules; Peptides found in complexes with MHC molecules by MS ([6]; mixture of two ligands, 5 μM each, 1 μM DRB1*0401): revealed in the complexes with MHC molecules; DR4 binding [5]: +++ |
| QWKEPDVYYTSAFVFPTKDVALR [Peptide 1501] | ++ | ++ | − | − | − | − | + | +/− | + | + | + | + | + | + |  |
| QGQNLKYQEFFWDANDIYRIF [Peptide 1505] | − | − | − | − | − | − | − | − | +/− | ++ | ++ | ++ | ++ | + | Immunogenicity in DRB1*0401-transgenic mice (in words) ([2]; total splenocytes): highest frequency of T cells; Binding to soluble DRB1*0401 molecules (in words) [5]: not so good in binding assay |
| PSLILVSQYTPDSTPCHRGDNQLQVQHTR [Peptide 1500] | + | + | ++ | ++ | − | − | − | − | ++ | + | + | + | + | ++ |  |
